Measured values taken from patent US9476087B2, “Methods and compounds for detecting beta-lactamase activity” (Nanyang Technological University, priority 2008, dated 2016).

How the values were obtained:
[1] = system: β-lactamase producing microorganisms; settings: Hakimelahi et al. 2005; cited from earlier work
[2] = system: clinical isolate K. pneumoniae (ATCC 700603); test: Nitrocefin colorimetric assay in living bacteria; format: cell-based; settings: nitrocefin 8 μM
Experimental: (§1) FIG. 22 depicts a colorimetric measurement after mixing nitrocefin with different bacterial suspensions. 1: Nitrocefin solution (8 μM) only; 2: Nitrocefin (8 μM) mixed with wild type E. coli Bl21; 3: Nitrocefin (8 μM) mixed with β-lactam antibiotics resistant E. coli Bl21; 4: Nitrocefin (8 μM) mixed with clinical isolate K. pneumoniae (ATCC 700603) strains. […] There was no color difference between the Bla-encoded E. coli Bl21 and the K. pneumoniae strains.
(§2) Bacterial cells (˜10^8 cfu/mL) were suspended in 1 ml of PBS buffer (pH 7.4) which contained substrates under the room temperature. Nitrocefin solution (from Merck) was incubated with bacteria for further enzyme interactions. The final concentration was maintained at 8 μM, which was the same as the gold nanoparticles based enzymatic assay. After 20 mins interaction and followed by centrifugation, supernatant was applied for colorimetric image. The color change with different bacterial suspensions is depicted in FIG. 22.

wild type E. coli Bl21 = test: Nitrocefin colorimetric assay in living bacteria; format: cell-based; settings: nitrocefin 8 μM
Experimental: as §1, §2

[3] = system: β-lactam antibiotics resistant E. coli Bl21; test: Nitrocefin colorimetric assay in living bacteria; format: cell-based; settings: nitrocefin 8 μM
Experimental: as §1, §2

[4] = system: CC(=O)NC1C(=O)N2C(C(=O)O)=C(CSc3ccc(CC(=O)NCCOCCOCCN)cc3)CSC12; test: purified protein, by the assay type; settings: other: 25° C., PBS pH 7.4, β-lactamase 5.0 nM, absorbance change at 650 nm
Experimental: The kinetic measurements were carried out at 25° C. in PBS (phosphate buffered saline) buffer at pH 7.4. The absorbance change at 650 nm was measured by means of a UV spectrophotometer.
The rate of enhancement in absorbance at 650 nm was applied to determine the kinetic properties of enzyme hydrolysis. The values of the kinetic parameters (Km and Kcat) were determined from the double-reciprocal plot of the hydrolysis rate versus substrate concentrations (Lineweaver-Burk plot, based on the Michaelis-Menten model).
The kinetic experiments were carried out at 25° C. in PBS buffer with pH 7.4. The absorbance change at 650 nm was measured using a UV spectrophotometer. […] The rate of enhancement in absorbance at 650 nm was applied to determine the kinetic properties of enzyme hydrolysis. The 9 values of the kinetic parameters (Km and Kcat) were determined from the double-reciprocal plot of the hydrolysis rate versus substrate concentrations (Lineweaver-Burk plot).

COC(=O)C1=C(C(=O)OC(Cl)(Cl)C(Cl)(Cl)OC(=O)C2=C(c3ccccc3)C[C@@H]3[C@@H](NC(=O)Cc4ccccc4)C(=O)N23)N2C(=O)[C@@H](NC(=O)Cc3ccccc3)[C@H]2C1 (relative stereo) [(5R,6S)-rel-7-oxo-6-[(phenylacetyl)amino]-1-azabicyclo[3.2.0]hept-2-ene-2,3-dicarboxylic acid 3-methyl 2-[1,1,2,2-tetrachloro-2-[[[(5R,6R)-7-oxo-3-phenyl-6-[(phenylacetyl)amino]-1-azabicyclo[3.2.0]hept-2-en-2-yl]carbonyl]oxy]ethyl]ester]
activity against β-lactamase producing microorganisms [1]: excellent activity

O=C(Cc1cccs1)N[C@@H]1C(=O)N2C(C(=O)O)=C(/C=C/c3ccc([N+](=O)[O-])cc3[N+](=O)[O-])CS[C@H]12 [nitrocefin]
color change of nitrocefin solution [2]: color change from yellow to pink
color of nitrocefin solution (wild type E. coli Bl21): pink color was also detected
color change of nitrocefin solution [3]: color change from yellow to pink

β-lactamase (Escherichia coli)
Km [4]: 14.1 µM
kcat [4]: 22.7 s⁻¹
